In the supplement of paper PMC7695840:
Structures can show the parent of a compound that is named as a salt.

Key:
[1] = test system: Staphylococcus aureus MW2 (mecA+); experiment: IC50 (growth, competition assay); conditions: cefoxitin: subinhibitory
Outline: (§1)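 Per plate, DsRed (540/590) and GFP (485/520) readings were normalized between the medians of the single-strain controls, after which No Treatment was fixed at 0.5. These readings came from a 1:1 mix of pre-induced fluorescent S. aureus MW2 strains with and without the resistance gene, grown for 20 h at 37 °C and 90% humidity, unshaken, in LB with a daily-set subinhibitory drug dose in 1536-well plates. Per-strain IC50 meant the dose halving the No Treatment signal, or the maximal signal.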

[2] = test system: Staphylococcus aureus MW2 delta-mecA (mecA-); experiment: IC50 (growth, competition assay); conditions: cefoxitin: subinhibitory
Outline: as §1

Structure (SMILES)	IC50 ([1]; fluorescent label: DsRed) [µM]	IC50 ([1]; fluorescent label: GFP) [µM]	IC50 ([2]; fluorescent label: DsRed) [µM]	IC50 ([2]; fluorescent label: GFP) [µM]
CN(C)[C@@H]1C(O)=C(C(N)=O)C(=O)[C@@]2(O)C(O)=C3C(=O)c4c(O)ccc(Cl)c4[C@@H](O)[C@H]3C[C@@H]12 [DECLOMYCIN]	< 9.85	< 9.85	< 9.85	< 9.85
CCOC(=O)C1=C(C)NC(C)=C(C(=O)OC)C1c1cccc(Cl)c1Cl (stereo not given) [PLENDIL]	29.9	30	< 9.85	< 9.85
CCc1ccc(/C=C2/SC(=S)NC2=O)cc1	< 9.85	< 9.85	< 9.85	< 9.85
CC[C@H]1OC(=O)C[C@@H](O)[C@H](C)[C@@H](O[C@@H]2O[C@H](C)[C@@H](O)[C@H](N(C)C)[C@H]2O)[C@@H](CCN2C[C@H](C)C[C@H](C)C2)C[C@@H](C)C(=O)/C=C/C(C)=C/[C@@H]1CO[C@@H]1O[C@H](C)[C@@H](O)[C@@H](OC)[C@H]1OC [MICOTIL]	18.8	28.3	13.4	< 9.85
Nc1nc(/C(=C/CC(=O)O)C(=O)N[C@@H]2C(=O)N3C(C(=O)O)=CCS[C@H]23)cs1 [CEDAX]	18.2	18.9	< 9.85	< 9.85
C[C@H]1COC2=C1C(=O)C(=O)c1c2ccc2c1CCCC2(C)C [Cryptotanshinone]	12.1	19.2	< 9.85	< 9.85
C[C@H](Oc1cc(-c2cnn(C3CCNCC3)c2)cnc1N)c1c(Cl)ccc(F)c1Cl [(S)-crizotinib]	75	101	< 9.85	< 9.85
CC[C@H]1OC(=O)[C@H](C)C(=O)[C@H](C)[C@@H](O[C@@H]2O[C@H](C)C[C@H](N(C)C)[C@H]2O)[C@](C)(OC)C[C@@H](C)C(=O)[C@H](C)[C@H]2N(CCCCn3cnc(-c4cccnc4)c3)C(=O)O[C@]12C [KETEK]	< 9.85	< 9.85	< 9.85	< 9.85
CC1COc2c(N3CCN(C)CC3)c(F)cc3c(=O)c(C(=O)O)cn1c23 (stereo not given) [FLOXIN]	< 9.85	< 9.85	< 9.85	< 9.85
CN(Cc1cnc2nc(N)nc(N)c2n1)c1ccc(C(=O)N[C@@H](CCC(=O)O)C(=O)O)cc1 [Abitrexate (Methotrexate)]	115	103	36.3	31.5
NS(=O)(=O)c1ccc(-n2nc(C(F)(F)F)cc2-c2ccc(Cl)cc2)cc1 [SC-236]	94.1	97.3	26.4	16.3
CO[C@@]1(NC(=O)C2SC(=C(C(N)=O)C(=O)O)S2)C(=O)N2C(C(=O)O)=C(CSc3nnnn3C)CS[C@@H]21 (stereo not given in full) [CEFOTAN]	14.9	14.9	< 9.85	< 9.85
N=C(N)c1ccc(OCCCCCOc2ccc(C(=N)N)cc2)cc1 [NEBUPENT]	16.2	23.6	14.5	13.7
C/C(=C\C(=O)Nc1ccccc1C(=O)O)c1ccc2ccccc2c1 [BIBR1532]	< 9.85	12.3	< 9.85	< 9.85
O=C(Nc1ncc(SCCN2CCCC2)s1)[C@]1(c2ccc(S(=O)(=O)C3CC3)cc2)C[C@H]1C1CCCCC1	111	> 150	74.5	34.4
CN1CCN(CCCN2c3ccccc3Sc3ccc(Cl)cc32)CC1 [Prochlorperazine dimaleate]	56.2	54.5	21.5	18
CC(C)(C)c1cc(/C=C(\C#N)C(N)=S)cc(C(C)(C)C)c1O [Tyrphostin AG 879 (AG 879)]	< 9.85	14	< 9.85	< 9.85
CC[C@H]1OC(=O)[C@H](C)[C@@H](O[C@H]2C[C@@](C)(OC)[C@@H](O)[C@H](C)O2)[C@H](C)[C@@H](O[C@@H]2O[C@H](C)C[C@H](N(C)C)[C@H]2O)[C@](C)(O)C[C@@H](C)/C(=N\OCOCCOC)[C@H](C)[C@@H](O)[C@]1(C)O [RULIDE]	< 9.85	< 9.85	< 9.85	< 9.85
Cn1sc(=O)n(Cc2ccccc2)c1=O [TDZD-8]	< 9.85	< 9.85	< 9.85	< 9.85
CC(C)(c1ccc(O)cc1)c1ccc(O)cc1 [BISPHENOL A]	42.4	64.7	< 9.85	< 9.85

Structure (SMILES)	IC50 ([1]; fluorescent label: DsRed) [µM]	IC50 ([1]; fluorescent label: GFP) [µM]	IC50 ([2]; fluorescent label: DsRed) [µM]	IC50 ([2]; fluorescent label: GFP) [µM]
Clc1ccc(C(Cn2ccnc2)OCc2ccsc2Cl)c(Cl)c1 (stereo not given) [VAGISTAT]	29.6	30.6	16.9	15
CSc1ccc2c(c1)C(N1CCN(C)CC1)Cc1ccccc1S2 (stereo not given) [Methiothepin mesylate]	56.7	55.3	21.3	19.1
CCOC(=O)CCC(=O)O[C@H]1[C@H](O[C@@H]2[C@@H](C)[C@H](O[C@H]3C[C@@](C)(OC)[C@@H](O)[C@H](C)O3)[C@@H](C)C(=O)O[C@H](CC)[C@@](C)(O)[C@H](O)[C@@H](C)C(=O)[C@H](C)C[C@@]2(C)O)O[C@H](C)C[C@@H]1N(C)C [Erythromycin Ethylsuccinate]	< 9.85	< 9.85	< 9.85	< 9.85
CO[C@H]1C[C@H](O[C@H]2[C@H](C)[C@@H](O[C@@H]3O[C@H](C)C[C@H](N(C)C)[C@H]3OC(C)=O)[C@@H](C)C[C@@]3(CO3)C(=O)[C@H](C)[C@@H](OC(C)=O)[C@@H](C)[C@@H](C)OC(=O)[C@@H]2C)O[C@@H](C)[C@@H]1OC(C)=O [EVRAMYCIN]	33.7	27.8	< 9.85	< 9.85
NC(=O)c1cnccn1 [TEBRAZID]	26.7	35.6	18.2	20.3
CCCCC[C@H](CC(=O)NO)C(=O)N[C@H](C(=O)N1CCC[C@H]1CO)C(C)C [ACTINONIN]	27.8	37.7	< 9.85	< 9.85
C[C@H](CCC(=O)O)[C@H]1CC[C@H]2[C@@H]3[C@H](O)C[C@@H]4C[C@H](O)CC[C@]4(C)[C@H]3CC[C@]12C [Chenodeoxycholic acid]	54	91.4	14.8	7.91
CO[C@H]1/C=C/O[C@@]2(C)Oc3c(C)c(O)c4c(O)c(c5c(nc6cc(C)ccn65)c4c3C2=O)NC(=O)/C(C)=C\C=C\[C@H](C)[C@H](O)[C@@H](C)[C@@H](O)[C@@H](C)[C@H](OC(C)=O)[C@@H]1C [Rifaximin (Xifaxan)]	< 0.498	< 0.498	< 0.498	< 0.498
NC(N)=NC(=O)c1nc(Cl)c(N2CCCCCC2)nc1N [5-(N,N-hexamethylene)amiloride]	90.9	108	46.2	60.9
COC1=C2C[C@@H](C)C[C@H](OC)[C@H](O)[C@@H](C)/C=C(\C)[C@H](OC(N)=O)[C@@H](OC)/C=C\C=C(/C)C(=O)NC(=CC1=O)C2=O [Geldanamycin]	< 9.85	< 9.85	< 9.85	< 9.85
CC[C@H]1OC(=O)C[C@@H](O)[C@H](C)[C@@H](O[C@@H]2O[C@H](C)[C@@H](O)[C@H](N(C)C)[C@H]2O)[C@@H](CCN2C[C@H](C)C[C@H](C)C2)C[C@@H](C)C(=O)/C=C/C(C)=C/[C@@H]1CO[C@@H]1O[C@H](C)[C@@H](O)[C@@H](OC)[C@H]1OC [Tilmicosin]	< 9.85	< 9.85	< 9.85	< 9.85
O=c1[nH]cc(F)c(=O)[nH]1 [CARAC]	< 9.85	< 9.85	< 9.85	< 9.85
CN1CCN(c2c(F)cc3c(=O)c(C(=O)O)cn4c3c2SCC4)CC1 [TEBRAXIN]	< 9.85	< 9.85	< 9.85	< 9.85
CN1CCN(CCCN2c3ccccc3Sc3ccc(C(F)(F)F)cc32)CC1 [Trifluoperazine 2HCl]	56.9	57.1	16.5	14.5
O=C(Nc1ncc([N+](=O)[O-])s1)c1ccc([N+](=O)[O-])c(Cl)c1	< 9.85	< 9.85	13.2	15.2
Cc1cc(-n2c(=O)[nH]c(=O)n(C)c2=O)ccc1Oc1ccc(SC(F)(F)F)cc1 [Toltrazuril]	34.6	71.9	24.3	27.3
Cc1cncc(CN2CCC(=C3c4ccc(Cl)cc4CCc4cccnc43)CC2)c1 [Rupatadine Fumarate]	74.3	112	26.6	20.2
NC1CCN(c2c(F)cc3c(=O)c(C(=O)O)cn(C4CC4)c3c2Cl)C1 (stereo not given)	< 9.85	< 9.85	< 9.85	< 9.85
O=C(C=Cc1ccc(O)cc1)c1ccccc1O [2',4-DIHYDROXYCHALCONE]	40.6	58	26.7	23.8
O=C(Nc1cc(C(F)(F)F)cc(C(F)(F)F)c1)c1cc(Cl)ccc1O [IMD0354]	< 9.85	< 9.85	< 9.85	< 9.85
